Measured values from patent US10138260B2, “Compounds of phosphinanes and azaphosphinanes, a process for their preparation and pharmaceutical compositions containing them” (LES LABORATOIRES SERVIER, priority 2016, dated 2018).

Target: T1, TAFIa (Homo sapiens, UniProt Q96IY4)
T1 sequence (Q96IY4 115-423): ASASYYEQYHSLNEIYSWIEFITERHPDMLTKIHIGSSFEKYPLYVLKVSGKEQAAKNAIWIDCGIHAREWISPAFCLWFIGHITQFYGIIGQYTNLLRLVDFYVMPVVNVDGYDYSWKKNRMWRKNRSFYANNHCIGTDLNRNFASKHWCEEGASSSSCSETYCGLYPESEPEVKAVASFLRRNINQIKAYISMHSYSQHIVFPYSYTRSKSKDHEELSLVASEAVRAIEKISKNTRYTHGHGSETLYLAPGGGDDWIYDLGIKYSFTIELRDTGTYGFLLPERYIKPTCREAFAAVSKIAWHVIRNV
Test: Inhibition of TAFIa (hippuryl-Arg test)
Assay type: biochemical
Conditions: TAFIa 2 nM, hippuryl-arginine 5 mM, 45 minutes, relative to control containing the carrier; for inhibition at 0.01 µM: compound at 10 nM; for inhibition at 0.02 µM: compound at 20 nM
Procedure: Human TAFI (4 nM) is incubated with human thrombin (10 nM) and human thrombomodulin (5 nM) in the presence of calcium (10 mM). After incubation for 20 minutes, the activation reaction is stopped by addition of PPACK (1 μM final), an irreversible thrombin inhibitor.
The reactions take place in Hepes buffer (25 mM Hepes, 137 mM NaCl, 3.5 mM KCl)+0.1% bovine albumin, pH 7.4 at 28° C. and with stirring.
The test compound is added to the solution of TAFIa (2 nM) and incubated for 45 minutes in the presence of hippuryl-arginine (5 mM). The reaction is stopped by addition of hydrochloric acid (1M) neutralised subsequently with sodium hydroxide (1M), and then the mixture is buffered with disodium hydroxyphosphate (1M pH 7.4). […] The reaction mixture is stirred (vortex) and then centrifuged. The supernatant is transferred to a 96-well microplate, and the absorbance is measured using a spectrophotometer at 405 nm (Spectramax plus, Molecular Devices).
The OD value of a well containing the reagents without TAFI is subtracted from all the OD values measured. The percentage inhibition of TAFIa at a given concentration of the test compound is determined by means of the following formula: % inhibition=100−[(OD compound×100)/OD carrier]
The compounds are evaluated at 10 nM and 20 nM under the experimental conditions described above and the results are expressed as the percentage inhibition relative to a control containing the carrier in the absence of compound.

Row | inhibition at 0.01 µM | inhibition at 0.02 µM | Structure (SMILES)
1 | 58% | 71% | NCCCCC1(C(=O)O)CN(Cc2ccccc2-c2cccc3ccccc23)CCP1(=O)O (stereo not drawn) [Example 109, 3-(4-AMINOBUTYL)-4-HYDROXY-1-[(2-NAPHTHALEN-1-YLPHENYL)METHYL]-4-OXO-1,4-AZAPHOSPHINANE-3-CARBOXYLIC ACID]
2 | 68% | 90% | NCCCCC1(C(=O)O)CN(Cc2ccc(Cl)cc2-c2ccc(Cl)cc2)CCP1(=O)O (stereo not drawn) [Example 113, 3-(4-AMINOBUTYL)-1-[[4-CHLORO-2-(4-CHLOROPHENYL)PHENYL]METHYL]-4-HYDROXY-4-OXO-1,4-AZAPHOSPHINANE-3-CARBOXYLIC ACID]
3 | 42% | 51% | NCCCCC1(C(=O)O)CN(Cc2ccccc2-c2ccccc2-c2ccccc2)CCP1(=O)O (stereo not drawn) [Example 114, 3-(4-AMINOBUTYL)-4-HYDROXY-4-OXO-1-[[2-(2-PHENYLPHENYL)PHENYL]-METHYL]-1,4-AZAPHOSPHINANE-3-CARBOXYLIC ACID]
4 | 66% | 87% | NCCCCC1(C(=O)O)CN(Cc2ccccc2-c2ccc3c(c2)OCO3)CCP1(=O)O (stereo not drawn) [Example 164, 3-(4-AMINOBUTYL)-1-[[2-(1,3-BENZODIOXOL-5-YL)PHENYL]METHYL]-4-HYDROXY-4-OXO-1,4-AZAPHOSPHINANE-3-CARBOXYLIC ACID]
5 | 76% | 91% | COc1ccc(-c2ccccc2CN2CCP(=O)(O)C(CCCCN)(C(=O)O)C2)cn1 (stereo not drawn) [Example 165, 3-(4-AMINOBUTYL)-4-HYDROXY-1-[[2-(6-METHOXYPYRIDIN-3-YL)PHENYL]-METHYL]-4-OXO-1,4-AZAPHOSPHINANE-3-CARBOXYLIC ACID]
6 | 66% | 93% | NCCCCC1(C(=O)O)CN(Cc2ccccc2-c2ccc(=O)[nH]c2)CCP1(=O)O (stereo not drawn) [Example 166, 3-(4-AMINOBUTYL)-4-HYDROXY-4-OXO-1-[[2-(6-OXO-1H-PYRIDIN-3-YL)PHENYL]METHYL]-1,4-AZAPHOSPHINANE-3-CARBOXYLIC ACID]

The remaining lines, values behind:

Row | Structure (SMILES) | inhibition at 0.01 µM | inhibition at 0.02 µM
7 | NCCCCC1(C(=O)O)CN(Cc2ccccc2-c2cc(Cl)ccc2Cl)CCP1(=O)O (stereo not drawn) [Example 48, 3-(4-AMINOBUTYL)-1-[[2-(2,5-DICHLOROPHENYL)PHENYL]METHYL]-4-HYDROXY-4-OXO-1,4-AZAPHOSPHINANE-3-CARBOXYLIC ACID] | 45% | 54%
8 | NCCCCC1(C(=O)O)CN(Cc2ccccc2-c2cccc(-c3ccccc3)c2)CCP1(=O)O (stereo not drawn) [Example 49, 3-(4-AMINOBUTYL)-4-HYDROXY-4-OXO-1-[[2-(3-PHENYLPHENYL)PHENYL]-METHYL]-1,4-AZAPHOSPHINANE-3-CARBOXYLIC ACID] | 60% | 73%
9 | NCCCCC1(C(=O)O)CN(Cc2ccccc2-c2ccc3ccccc3c2)CCP1(=O)O (stereo not drawn) [Example 50, 3-(4-AMINOBUTYL)-4-HYDROXY-1-[(2-NAPHTHALEN-2-YLPHENYL)METHYL]-4-OXO-1,4-AZAPHOSPHINANE-3-CARBOXYLIC ACID] | 53% | 66%
10 | NCCCCC1(C(=O)O)CN(Cc2ccc(F)cc2-c2ccc(O)cc2)CCP1(=O)O (stereo not drawn) [Example 104, 3-(4-AMINOBUTYL)-1-[[4-FLUORO-2-(4-HYDROXYPHENYL)PHENYL]METHYL]-4-HYDROXY-4-OXO-1,4-AZAPHOSPHINANE-3-CARBOXYLIC ACID] | 37% | 68%
11 | NCCCCC1(C(=O)O)CN(Cc2ccsc2-c2ccccc2)CCP1(=O)O (stereo not drawn) [Example 105, 3-(4-AMINOBUTYL)-4-HYDROXY-4-OXO-1-[(2-PHENYLTHIOPHEN-3-YL)METHYL]-1,4-AZAPHOSPHINANE-3-CARBOXYLIC ACID] | 44% | 66%
12 | NCCCCC1(C(=O)O)CN(Cc2ccccc2-c2nccs2)CCP1(=O)O (stereo not drawn) [Example 108, 3-(4-AMINOBUTYL)-4-HYDROXY-4-OXO-1-[[2-(1,3-THIAZOL-2-YL)PHENYL]-METHYL]-1,4-AZAPHOSPHINANE-3-CARBOXYLIC ACID] | 25% | 29%
